Measurements published in ChEMBL document CHEMBL1201862, “PubChem BioAssay data set” (2004).
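Briefly, cells in 96-well plates were exposed to five compound concentrations for 48 h, and endpoints were estimated by linear interpolation. Abbreviation: GI50, concentration required for 50% inhibition of growth.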 Activity calls are given as the source filed them. No stated cut-off is given here; in the data, active = GI50 up to about 1.1 µM and inactive = higher.

Columns and labels:
Assay in all cases: growth of human tumour cells (NCI), 48 h
UACC-62 = system: UACC-62
HCT-116 = system: HCT-116
NCI-H460 = system: NCI-H460
NCI-H226 = system: NCI-H226
TK-10 = system: TK-10
UO-31 = system: UO-31
OVCAR-3 = system: OVCAR-3
HOP-92 = system: HOP-92
SNB-75 = system: SNB-75
HCC 2998 = system: HCC 2998
RPMI-8226 = system: RPMI-8226
IGROV-1 = system: IGROV-1
SF-539 = system: SF-539
HL-60 = system: HL-60
NCI-H23 = system: NCI-H23
Malme-3M = system: Malme-3M
RXF 393 = system: RXF 393
MDA-MB-435 = system: MDA-MB-435
A498 = system: A498

Row | Structure (SMILES) | GI50 (UACC-62) | GI50 (HCT-116) | GI50 (NCI-H460) | GI50 (NCI-H226) | GI50 (TK-10) | GI50 (UO-31) | GI50 (OVCAR-3) | GI50 (HOP-92) | GI50 (SNB-75) | GI50 (HCC 2998) | GI50 (RPMI-8226) | GI50 (IGROV-1) | GI50 (SF-539) | GI50 (HL-60) | GI50 (NCI-H23) | GI50 (Malme-3M) | GI50 (RXF 393) | GI50 (MDA-MB-435) | GI50 (A498)
1 | CC(C)Cn1cnc2c(Sc3c([N+](=O)[O-])ncn3C)nc(N)nc21 | > 50.2 µM (inactive) | > 60.1 µM (inactive) | > 63 µM (inactive) | > 100 µM (inactive) | > 41.1 µM (inactive) | > 38 µM (inactive) | > 35 µM (inactive) | 14.9 µM (inactive) | > 59.8 µM (inactive) | > 62.7 µM (inactive) | > 52.7 µM (inactive) | > 47.5 µM (inactive) | > 23.7 µM (inactive) | 30.3 µM (inactive) | > 65.5 µM (inactive) | 30.8 µM (inactive) | > 56.1 µM (inactive) | 37.5 µM (inactive) | > 100 µM (inactive)
2 | CC1=C(O)C(=O)C2C(=O)C1C1Cc3ccccc3C21 (centres undefined) | > 100 µM (inactive) | – | – | > 100 µM (inactive) | > 100 µM (inactive) | > 100 µM (inactive) | > 100 µM (inactive) | > 100 µM (inactive) | 60.5 µM (inactive) | > 100 µM (inactive) | > 100 µM (inactive) | > 100 µM (inactive) | > 100 µM (inactive) | > 100 µM (inactive) | > 100 µM (inactive) | > 100 µM (inactive) | > 100 µM (inactive) | – | > 100 µM (inactive)
3 | CN1c2ccccc2C2c3c(O)ccc(O)c3C=C([N+](=O)[O-])C21 (centres undefined) | 0.957 µM (active) | 0.205 µM (active) | 1.9 µM (inactive) | 16.2 µM (inactive) | 11.2 µM (inactive) | 0.521 µM (active) | 0.0329 µM (active) | 2.28 µM (inactive) | 4.7 µM (inactive) | 0.716 µM (active) | 1.11 µM (active) | 0.492 µM (active) | 1.44 µM (inactive) | 0.684 µM (active) | 1.69 µM (inactive) | – | 3.91 µM (inactive) | 0.199 µM (active) | 1.79 µM (inactive)
4 | CC(=O)Oc1c(C)c(-c2ccccc2)c(C)c(-c2ccccc2)c1C(=S)c1ccccc1 | > 100 µM (inactive) | > 100 µM (inactive) | > 100 µM (inactive) | > 100 µM (inactive) | > 100 µM (inactive) | > 100 µM (inactive) | > 100 µM (inactive) | > 100 µM (inactive) | > 100 µM (inactive) | > 100 µM (inactive) | 70.8 µM (inactive) | > 100 µM (inactive) | > 100 µM (inactive) | 35.7 µM (inactive) | > 100 µM (inactive) | > 100 µM (inactive) | > 100 µM (inactive) | – | > 100 µM (inactive)
5 | O=C(O)c1c2c(c(C(=O)O)c3ccccc13)-c1ccccc1-2 | 22.9 µM (inactive) | 78.9 µM (inactive) | – | 34 µM (inactive) | 36.1 µM (inactive) | 28.1 µM (inactive) | 27.5 µM (inactive) | 23.3 µM (inactive) | 36.7 µM (inactive) | 37.1 µM (inactive) | 40.2 µM (inactive) | > 10 µM (inactive) | 28.7 µM (inactive) | 36.4 µM (inactive) | 39.8 µM (inactive) | 31 µM (inactive) | 21.9 µM (inactive) | – | 44.1 µM (inactive)
6 | C=CCC1(O)CC(n2cc(C)c(=O)[nH]c2=O)OC1CO[Si](C)(C)C(C)(C)C (centres undefined) | 35.9 µM (inactive) | 42 µM (inactive) | 38.7 µM (inactive) | 49.5 µM (inactive) | – | 42.4 µM (inactive) | 39 µM (inactive) | 35.5 µM (inactive) | 38 µM (inactive) | 24.5 µM (inactive) | 37.4 µM (inactive) | 46.9 µM (inactive) | 53.5 µM (inactive) | – | 44 µM (inactive) | – | 29 µM (inactive) | 41.5 µM (inactive) | 37.2 µM (inactive)
7 | CC1=CC(=O)c2c(C=O)c(O)c(O)c(C(C)C)c2C1=O | 20.3 µM (inactive) | 18.3 µM (inactive) | 28.8 µM (inactive) | 10.6 µM (inactive) | – | 22 µM (inactive) | – | 20.9 µM (inactive) | 40.7 µM (inactive) | 29.3 µM (inactive) | 19.8 µM (inactive) | 22.5 µM (inactive) | 25.6 µM (inactive) | 25.6 µM (inactive) | 28.8 µM (inactive) | 22.9 µM (inactive) | 14 µM (inactive) | – | 24.4 µM (inactive)
8 | CC(=O)[C@@]1(C)CC2(CCN(C)CC2)OC1C (some centres undefined) | – | > 100 µM (inactive) | > 100 µM (inactive) | > 100 µM (inactive) | > 100 µM (inactive) | > 100 µM (inactive) | > 100 µM (inactive) | > 100 µM (inactive) | > 100 µM (inactive) | – | > 100 µM (inactive) | > 100 µM (inactive) | > 100 µM (inactive) | – | > 100 µM (inactive) | > 100 µM (inactive) | > 100 µM (inactive) | > 100 µM (inactive) | > 100 µM (inactive)
9 | Cc1nc(C(=O)O)c2ccccc2n1 | > 100 µM (inactive) | > 100 µM (inactive) | > 100 µM (inactive) | – | > 100 µM (inactive) | > 100 µM (inactive) | > 100 µM (inactive) | > 100 µM (inactive) | > 100 µM (inactive) | > 100 µM (inactive) | > 100 µM (inactive) | > 100 µM (inactive) | > 100 µM (inactive) | > 100 µM (inactive) | > 100 µM (inactive) | > 100 µM (inactive) | > 100 µM (inactive) | – | > 100 µM (inactive)
10 | CCN(CC)/C(=C\Cl)Nc1ccccn1.[O-][Cl+3]([O-])([O-])O | > 100 µM (inactive) | > 100 µM (inactive) | > 100 µM (inactive) | > 100 µM (inactive) | > 100 µM (inactive) | > 100 µM (inactive) | > 100 µM (inactive) | > 100 µM (inactive) | > 100 µM (inactive) | > 100 µM (inactive) | > 100 µM (inactive) | > 100 µM (inactive) | > 100 µM (inactive) | > 100 µM (inactive) | > 100 µM (inactive) | > 100 µM (inactive) | > 100 µM (inactive) | – | > 100 µM (inactive)
11 | COc1cc(C2c3cc(O)c(OC)cc3C3OCC2C3CO)ccc1O (centres undefined) | > 100 µM (inactive) | 76.9 µM (inactive) | > 100 µM (inactive) | > 100 µM (inactive) | > 100 µM (inactive) | > 100 µM (inactive) | > 100 µM (inactive) | 7.6 µM (inactive) | > 100 µM (inactive) | > 100 µM (inactive) | > 100 µM (inactive) | – | > 100 µM (inactive) | > 100 µM (inactive) | > 100 µM (inactive) | > 100 µM (inactive) | > 100 µM (inactive) | > 100 µM (inactive) | > 100 µM (inactive)
12 | COc1cc2c(c(OC)c1OC)-c1ccc(SC)c(=O)cc1C(CC(=O)Oc1ccc(F)cc1)C2 (centres undefined) | 0.129 µM (active) | 0.0891 µM (active) | 0.253 µM (active) | 0.231 µM (active) | 40.8 µM (inactive) | 0.817 µM (active) | 0.134 µM (active) | 1.21 µM (inactive) | 0.234 µM (active) | 0.121 µM (active) | 0.296 µM (active) | 0.605 µM (active) | 0.117 µM (active) | 0.043 µM (active) | 0.215 µM (active) | 0.392 µM (active) | 0.0365 µM (active) | – | 0.0374 µM (active)
13 | CCc1cc(CCC(=O)Nc2c(C)cccc2C)n[nH]1 | > 100 µM (inactive) | > 100 µM (inactive) | > 100 µM (inactive) | > 100 µM (inactive) | > 100 µM (inactive) | > 100 µM (inactive) | > 100 µM (inactive) | > 100 µM (inactive) | > 100 µM (inactive) | > 100 µM (inactive) | > 100 µM (inactive) | > 100 µM (inactive) | > 100 µM (inactive) | > 100 µM (inactive) | > 100 µM (inactive) | > 100 µM (inactive) | > 100 µM (inactive) | – | > 100 µM (inactive)
14 | CCOC1=C2C(=O)OC(=O)C2C2CCCCC2=C1 (centres undefined) | > 100 µM (inactive) | > 100 µM (inactive) | > 100 µM (inactive) | – | > 100 µM (inactive) | > 100 µM (inactive) | > 100 µM (inactive) | > 100 µM (inactive) | > 100 µM (inactive) | > 100 µM (inactive) | > 100 µM (inactive) | > 100 µM (inactive) | > 100 µM (inactive) | > 100 µM (inactive) | > 100 µM (inactive) | > 100 µM (inactive) | > 100 µM (inactive) | – | > 10 µM (inactive)
15 | Cc1c(O)c(OC2OC(CO)C(O)C(O)C2O)cc2c1CC[C@@H]1C2(C)C(=O)C[C@]2(C)[C@@H]([C@@](C)(O)C3CCC(C)(C)O3)[C@H](O)C[C@@]12C (some centres undefined) | > 100 µM (inactive) | > 100 µM (inactive) | > 100 µM (inactive) | > 100 µM (inactive) | > 100 µM (inactive) | > 100 µM (inactive) | > 100 µM (inactive) | > 100 µM (inactive) | > 100 µM (inactive) | > 100 µM (inactive) | – | > 100 µM (inactive) | > 100 µM (inactive) | – | > 100 µM (inactive) | > 100 µM (inactive) | > 100 µM (inactive) | > 100 µM (inactive) | > 100 µM (inactive)
16 | Cc1cc(S(=O)(=O)Nc2nc3ccsc3c(=O)n2N)c(S)cc1Cl | 38.7 µM (inactive) | 94.8 µM (inactive) | 53.2 µM (inactive) | 34.6 µM (inactive) | > 100 µM (inactive) | – | > 100 µM (inactive) | – | > 100 µM (inactive) | > 100 µM (inactive) | > 100 µM (inactive) | > 100 µM (inactive) | > 100 µM (inactive) | > 100 µM (inactive) | > 100 µM (inactive) | 81.1 µM (inactive) | – | 83.8 µM (inactive) | –
